Data published in patent publication US20080039515A1, “Arylpyrazoles And Methods Of Using Same For Control Of Insect Pests That Bore Into Trees” (The Texas A&M University System, priority 2004, published 2008).
Read-outs that look alike come from different tables or passages of the source.

Tests used:
cerambycid larvae = format: in vivo, cerambycids; settings: May
Procedure: (§1) Study Sites: Two 20-year-old, recently thinned loblolly pine plantations were selected in Texas. Trees in one plantation were injected for use in a bolt study (Trial 1). Trees in ½ acre section of the second plantation were injected as part of a single-tree protection study (Trial 2). A staging area also was set up in the second plantation where bolts from the first plantation were exposed to bark beetles and wood borers.
(§2) After 1 (May 24), 3 (July 19) and 5 (September) months post-injection, 5 trees of each treatment were felled and two 1.5 m long bolts were removed from the 3 m and 8 m heights of the bole. Because southern pine beetle (SPB) populations were extremely low in east Texas during the study year, Ips engravers were used as alternative bark beetles for this study. The bolts were transported to a 20-year-old loblolly plantation that was recently thinned and contained fresh slash material. Each bolt was placed about 1 m apart on discarded, dry pine bolts to maximize surface area available for colonization as well as to discourage predation by ground and litter-inhabiting organisms. To facilitate timely bark beetle colonization, packets of bark beetle pheromones (racemic ipsdienol +lanerione combination, ipsenol or cis-verbenol; Phero Tech, Inc., Delta, BC, Canada) were attached separately to three 1 m stakes evenly spaced in the study area. Racemic ipsdienol and cis-verbenol were used with the second series of bolts deployed in July. The packets were removed after 2 weeks when signs of attacks (boring dust) were observed on most test bolts, signaling that naturally-produced pheromones were present.
(§3) Treatment Evaluation: Trial 1. The first and second series of bolts were retrieved 2.5 and 3 weeks, respectively, after deployment, after observing many cerambycid attacks on most of the bolts. In the laboratory, two 10×50 cm strips (total=1000 cm^2) of bark were removed from each bolt. Several measurements were made relating to construction of nuptial chambers and egg galleries and development of brood: • 1. Number of unsuccessful attacks—penetration to phloem, but no egg galleries. • 2. Number of successful attacks—construction of nuptial chamber and at least one egg gallery extending from it. • 3. Number and lengths of egg galleries with brood galleries radiating from them. • 4. Number and lengths of egg galleries without brood galleries. • 5. Cerambycid activity, estimated by overlaying a 100 cm^2 grid over a portion of each bark strip and counting the number of squares overlapping area where cerambycids had fed.
(§4) Treatment efficacy was determined by comparing Ips beetle attacks and egg gallery length and cerambycid feeding on treated and untreated bolts. The data were transformed by log10(x+1) to satisfy criteria for normality and homoscedasticity (Zar 1984) and analyzed by GLM and the Fishers Protected LSD test using the Statview statistical program.

Ips engravers beetles = format: in vivo
Procedure: as §1
Population Monitoring: A clear panel of acetate (10 cm wide by 25 cm long) was attached to the center of each bolt after deployment of bolts or 2 m high on standing trees after deployment of pheromone baits to monitor arrival of bark beetles. The top surface of each panel was coated entirely with Stikem Special® trapping compound (Michel and Pelton, Emeryville, Calif.). The traps were left in place for two weeks.
as §2, §3, §4

[1] = 1 month post-injection (May), bolt height 3 m
[2] = 1 month post-injection (May), bolt height 8 m
[3] = 3 months post-injection (July), bolt height 3 m
[4] = 3 months post-injection (July), bolt height 8 m
[5] = 3 months post-injection, bolt height 3 m
[6] = 3 months post-injection, bolt height 8 m
[7] = 5 months post-injection (Sept.), bolt height 3 m
[8] = 5 months post-injection (Sept.), bolt height 8 m

O=[N+]([O-])NC1=NCCN1Cc1ccc(Cl)nc1 [Imid]
reduction of cerambycid larval feeding damage (cerambycid larvae; bolts from 3 m): 61% | reduction of cerambycid larval feeding damage (cerambycid larvae; bolts from 8 m): 98% | Length of Egg Galleries Total (Ips engravers beetles; [1]): 442.2 | Length of Egg Galleries With Brood (Ips engravers beetles; [1]): 283.2 cm | Length of Egg Galleries With Brood % of Total (Ips engravers beetles; [1]): 64.0% | Length of Egg Galleries Without Brood (Ips engravers beetles; [1]): 159.0 cm | Length of Egg Galleries Without Brood % of Total (Ips engravers beetles; [1]): 36.0% | Mean # of Ips caught/trap (Ips engravers beetles; [1]): 5.6 | Number of Egg Galleries Total (Ips engravers beetles; [1]): 65.2 | Number of Egg Galleries With Brood % of Total (Ips engravers beetles; [1]): 46.0% | Number of Egg Galleries With Brood No. (Ips engravers beetles; [1]): 30.0 | Number of Egg Galleries Without Brood % of Total (Ips engravers beetles; [1]): 54.0% | Number of Egg Galleries Without Brood No. (Ips engravers beetles; [1]): 35.2 | Nuptial Chambers Total (Ips engravers beetles; [1]): 18.2 | Nuptial Chambers With Egg Galleries % of Total (Ips engravers beetles; [1]): 89.0% | Nuptial Chambers With Egg Galleries No. (Ips engravers beetles; [1]): 16.2 | Nuptial Chambers Without Egg Galleries % of Total (Ips engravers beetles; [1]): 11.0% | Nuptial Chambers Without Egg Galleries No. (Ips engravers beetles; [1]): 2.0 | Length of Egg Galleries Total (Ips engravers beetles; [2]): 315.8 | Length of Egg Galleries With Brood (Ips engravers beetles; [2]): 197.0 cm | Length of Egg Galleries With Brood % of Total (Ips engravers beetles; [2]): 62.4% | Length of Egg Galleries Without Brood (Ips engravers beetles; [2]): 118.8 cm | Length of Egg Galleries Without Brood % of Total (Ips engravers beetles; [2]): 37.6% | Mean # of Ips caught/trap (Ips engravers beetles; [2]): 3.8 | Number of Egg Galleries Total (Ips engravers beetles; [2]): 49.0 | Number of Egg Galleries With Brood % of Total (Ips engravers beetles; [2]): 39.6% | Number of Egg Galleries With Brood No. (Ips engravers beetles; [2]): 19.4 | Number of Egg Galleries Without Brood % of Total (Ips engravers beetles; [2]): 60.4% | Number of Egg Galleries Without Brood No. (Ips engravers beetles; [2]): 29.6 | Nuptial Chambers Total (Ips engravers beetles; [2]): 15.8 | Nuptial Chambers With Egg Galleries % of Total (Ips engravers beetles; [2]): 81.0% | Nuptial Chambers With Egg Galleries No. (Ips engravers beetles; [2]): 12.8 | Nuptial Chambers Without Egg Galleries % of Total (Ips engravers beetles; [2]): 19.0% | Nuptial Chambers Without Egg Galleries No. (Ips engravers beetles; [2]): 3.0 | Mean # of Ips caught/trap (Ips engravers beetles; [3]): 2.6 | Nuptial Chambers Total (Ips engravers beetles; [3]): 10.8 | Nuptial Chambers With Egg Galleries % of Total (Ips engravers beetles; [3]): 61.1% | Nuptial Chambers With Egg Galleries No. (Ips engravers beetles; [3]): 6.6 | Nuptial Chambers Without Egg Galleries % of Total (Ips engravers beetles; [3]): 38.9% | Nuptial Chambers Without Egg Galleries No. (Ips engravers beetles; [3]): 4.2 | Mean # of Ips caught/trap (Ips engravers beetles; [4]): 2.0 | Nuptial Chambers Total (Ips engravers beetles; [4]): 9.4 | Nuptial Chambers With Egg Galleries % of Total (Ips engravers beetles; [4]): 59.6% | Nuptial Chambers With Egg Galleries No. (Ips engravers beetles; [4]): 5.6 | Nuptial Chambers Without Egg Galleries % of Total (Ips engravers beetles; [4]): 40.4% | Nuptial Chambers Without Egg Galleries No. (Ips engravers beetles; [4]): 3.8 | Length of Egg Galleries Total (Ips engravers beetles; [5]): 187.4 | Length of Egg Galleries With Brood (Ips engravers beetles; [5]): 151.4 cm | Length of Egg Galleries With Brood % of Total (Ips engravers beetles; [5]): 80.8% | Length of Egg Galleries Without Brood (Ips engravers beetles; [5]): 36.0 cm | Length of Egg Galleries Without Brood % of Total (Ips engravers beetles; [5]): 19.2% | Number of Egg Galleries Total (Ips engravers beetles; [5]): 20.6 | Number of Egg Galleries With Brood % of Total (Ips engravers beetles; [5]): 68.9% | Number of Egg Galleries With Brood No. (Ips engravers beetles; [5]): 14.2 | Number of Egg Galleries Without Brood % of Total (Ips engravers beetles; [5]): 31.1% | Number of Egg Galleries Without Brood No. (Ips engravers beetles; [5]): 6.4 | Length of Egg Galleries Total (Ips engravers beetles; [6]): 130.0 | Length of Egg Galleries With Brood (Ips engravers beetles; [6]): 87.4 cm | Length of Egg Galleries With Brood % of Total (Ips engravers beetles; [6]): 67.2% | Length of Egg Galleries Without Brood (Ips engravers beetles; [6]): 42.6 cm | Length of Egg Galleries Without Brood % of Total (Ips engravers beetles; [6]): 32.8% | Number of Egg Galleries Total (Ips engravers beetles; [6]): 17.4 | Number of Egg Galleries With Brood % of Total (Ips engravers beetles; [6]): 52.9% | Number of Egg Galleries With Brood No. (Ips engravers beetles; [6]): 9.2 | Number of Egg Galleries Without Brood % of Total (Ips engravers beetles; [6]): 47.1% | Number of Egg Galleries Without Brood No. (Ips engravers beetles; [6]): 8.2 | Length of Egg Galleries Total (Ips engravers beetles; [7]): 163.4 | Length of Egg Galleries With Brood (Ips engravers beetles; [7]): 154.2 cm | Length of Egg Galleries With Brood % of Total (Ips engravers beetles; [7]): 94.4% | Length of Egg Galleries Without Brood (Ips engravers beetles; [7]): 9.2 cm | Length of Egg Galleries Without Brood % of Total (Ips engravers beetles; [7]): 5.6% | Mean # of Ips caught/trap (Ips engravers beetles; [7]): 1.6 | Number of Egg Galleries Total (Ips engravers beetles; [7]): 13.2 | Number of Egg Galleries With Brood % of Total (Ips engravers beetles; [7]): 89.4% | Number of Egg Galleries With Brood No. (Ips engravers beetles; [7]): 11.8 | Number of Egg Galleries Without Brood % of Total (Ips engravers beetles; [7]): 10.6% | Number of Egg Galleries Without Brood No. (Ips engravers beetles; [7]): 1.4 | Nuptial Chambers Total (Ips engravers beetles; [7]): 4.6 | Nuptial Chambers With Egg Galleries % of Total (Ips engravers beetles; [7]): 95.7% | Nuptial Chambers With Egg Galleries No. (Ips engravers beetles; [7]): 4.4 | Nuptial Chambers Without Egg Galleries % of Total (Ips engravers beetles; [7]): 4.3% | Nuptial Chambers Without Egg Galleries No. (Ips engravers beetles; [7]): 0.2 | Length of Egg Galleries Total (Ips engravers beetles; [8]): 164.4 | Length of Egg Galleries With Brood (Ips engravers beetles; [8]): 144.8 cm | Length of Egg Galleries With Brood % of Total (Ips engravers beetles; [8]): 88.1% | Length of Egg Galleries Without Brood (Ips engravers beetles; [8]): 19.6 cm | Length of Egg Galleries Without Brood % of Total (Ips engravers beetles; [8]): 11.9% | Mean # of Ips caught/trap (Ips engravers beetles; [8]): 1.5 | Number of Egg Galleries Total (Ips engravers beetles; [8]): 18.0 | Number of Egg Galleries With Brood % of Total (Ips engravers beetles; [8]): 81.1% | Number of Egg Galleries With Brood No. (Ips engravers beetles; [8]): 14.6 | Number of Egg Galleries Without Brood % of Total (Ips engravers beetles; [8]): 18.9% | Number of Egg Galleries Without Brood No. (Ips engravers beetles; [8]): 3.4 | Nuptial Chambers Total (Ips engravers beetles; [8]): 7.2 | Nuptial Chambers With Egg Galleries % of Total (Ips engravers beetles; [8]): 69.4% | Nuptial Chambers With Egg Galleries No. (Ips engravers beetles; [8]): 5.0 | Nuptial Chambers Without Egg Galleries % of Total (Ips engravers beetles; [8]): 30.6% | Nuptial Chambers Without Egg Galleries No. (Ips engravers beetles; [8]): 2.2
